Source: paper PMC8022858, “Discovery of bone morphogenetic protein 7-derived peptide sequences that attenuate the human osteoarthritic chondrocyte phenotype” (Molecular Therapy. Methods & Clinical Development, 2021)

Tested on: primary human OA articular chondrocytes (OA-HACs)
Assay: BMP7 peptide library screening, quantitative real-time PCR of OA chondrocyte phenotype genes
Assay type: cell-based
Settings: for expression of SOX9, COL2A1, and NKX3-2 mRNA / expression of RUNX2, COL10A1, ALPL, MMP13, ADAMTS5, COX-2, and IL6 mRNA: 24 h, 1, 10, 100 or 1,000 nM peptide, normalized to 28S rRNA; for expression of SOX9, COL2A1, and NKX3-2 mRNA: relative to control (Figure 2A); for expression of RUNX2, COL10A1, ALPL, MMP13, ADAMTS5, COX-2, and IL6 mRNA: relative to control (Figures 2B, 2C); for concentration range of bioactivity / COL10A1 mRNA expression: 24 h; for concentration range of bioactivity: concentration series 1-1,000 nM; for COL10A1 mRNA expression: pool of 18 OA-HACs, 100 nM peptide, versus control (Figure 1B)
Description: To investigate whether BMP7 harbors potential peptide sequences that improve the OA chondrocyte phenotype, a peptide library was designed from the mature 139 amino acid-long human BMP7 sequence (Table S2). The peptide library was designed as 20-mer peptides with 2 amino acid intervals (18 amino acid overlap) between individual peptides and with all cysteine residues substituted by serine residues to avoid uncontrolled oxidation of cysteine groups. This yielded 61 individual peptides covering the complete mature human BMP7 sequence (Figure 1A). The peptide library was screened using a pool of primary human OA articular chondrocytes (OA-HACs) from 18 individual donors. Prior to pooling, individual OA-HAC isolates were tested for their responsiveness to BMP7 (Figure S1). The screening was conducted by exposing the OA-HAC pool for 24 h to a concentration series (1, 10, 100, or 1,000 nM) of each peptide from the library. […] This is defined as reduced expression of collagen type X alpha 1 chain (COL10A1), alkaline phosphatase (ALPL), Runt-related transcription factor 2 (RUNX2), ADAMTS5, MMP13, prostaglandin-endoperoxide synthase 2 or cyclooxygenase-2 (COX-2), and interleukin 6 (IL6) and increased expression of SRY-box transcription factor 9 (SOX9), COL2A1, and NKX3-2. […] Representative peptides inducing the above gene expression characteristics in OA-HACs were selected from both regions for further investigation. These were peptide p[63−82] and p[113−132] from the library, covering amino acids 63−82 and 113−132 of the mature BMP7 amino acid sequence. The complete quantitative real-time PCR data for peptides p[63−82] and p[113−132] […] For the two candidate peptides, we validated data using an independent cohort of three OA-HACs exposed to 100 nM of p[63−82] or p[113−132] or a combination of both peptides. […] Taken together, two regions in BMP7 were identified delivering peptide sequences that are able to improve the OA chondrocyte phenotype.
Figure 1 BMP7 peptide library screening on primary human OA articular chondrocytes (OA-HACs) (A) Schematic representation of the design of the human BMP7 peptide library. (B) COL10A1 mRNA expression in samples from the library screening on a pool of 18 OA-HACs individually exposed for 24 h to the peptides (100 nM) in the library. Data are shown as compared to the control condition (white bar) and full-length BMP7 (1 nM; gray bar). The two blue bars represent candidate peptides p[63−82] and p[113−132]. […] Error bars represent mean ± SEM, and statistical significance for peptide condition or BMP7 versus control condition as determined by unpaired two-tailed Student’s t test is represented as ∗p < 0.05, ∗∗p < 0.01, and ∗∗∗p < 0.001; NS, not significant.
Figure 2 Bioactivity of BMP7-derived peptides p[63−82] and p[113−132] on OA-HACs Complete peptide library screening quantitative real-time PCR dataset for peptides p[63−82] and p[113−132] is presented. (A) SOX9, COL2A1, and NKX3-2 mRNA expression in the 18 OA-HAC pool exposed to 1,000, 100, 10, or 1 nM of peptide p[63−82] and p[113−132] is shown and presented relative to control (black bars) and alongside full-length BMP7 (white bars). (B) Similar to (A) but for chondrocyte hypertrophy-associated genes RUNX2, COL10A1, and ALPL. (C) Similar to (A) but for cartilage extracellular matrix remodeling-associated genes MMP13 and ADAMTS5 and inflammation-related genes COX-2 and IL-6. (D) Glycosaminoglycan (GAG) content (normalized to total protein content) on an independent cohort of three individual OA-HAC donors treated with 100 nM peptides p[63−82] and p[113−132] for 24 h. (E) Alkaline phosphatase (ALP) activity (normalized to total protein content) in similar samples from (D). (F) Prostaglandin E2 (PGE2) levels in culture supernatant in similar samples from (D). […]

Substance | chondrocyte COX-2, IL-6, and PGE2 levels (full-length BMP7 1 nM, OA-HACs) | expression of SOX9, COL2A1, and NKX3-2 mRNA (pool of 18 OA-HAC donors) | expression of RUNX2, COL10A1, ALPL, MMP13, ADAMTS5, COX-2, and IL6 mRNA (pool of 18 OA-HAC donors) | concentration range of bioactivity (pool of 18 OA-HAC donors) | COL10A1 mRNA expression | sequence specificity: expression of COL2A1, RUNX2, COL10A1, and COX-2 (pool of 18 OA-HAC donors, scrambled peptides 100 nM, 24 h (Figure 2G))
BMP7: full-length recombinant bone morphogenetic protein 7 (R&D Systems), used at 1 nM | attenuation |  |  |  |  | 
H-AAYYSEGESAFPLNSYMNAT-OH [p[63−82]] |  | induced | inhibited | low nanomolar range | significantly downregulated | 
H-SEASPAMYYLNATANFYESG-OH [scrambled p[63−82], scrambled version of peptide p[63−82], reference compound] |  |  |  |  |  | neither one of them was able to recapitulate the bioactivity
H-SVLYFDDSSNVILKKYRNMV-OH [p[113−132]] |  | induced | inhibited | low nanomolar range | significantly downregulated | 
